Literature values as cited in patent publication US20110098303A1, “Method of promoting nail growth using thyromimetic compounds” (priority 2002, published 2011).

Experiments:
[1] = test system: nail growth; settings: in vivo
[2] = test system: mice
[3] = test system: AGA mouse; settings: topical treatment

SMILES	rate of nail growth [1]	hair growth ([2]; administered locally, directly to the skin)	growth of hair ([2]; systemically administered)	effect on testosterone induced alopecia [3]
N[C@@H](Cc1ccc(O)c(O)c1)C(=O)O [I-dopa]	accelerate the rate of nail growth			
N[C@@H](Cc1cc(I)c(Oc2ccc(O)c(I)c2)c(I)c1)C(=O)O [T3, 3,5,3′-triiodo-L-thyronine]		dramatic acceleration of hair growth	inhibits the growth of hair	inhibitory effect
O=C(O)CCCC[C@@H]1SC[C@@H]2NC(=O)N[C@@H]21 [biotin]	accelerate the rate of nail growth			
N[C@@H](CSSC[C@H](N)C(=O)O)C(=O)O [cystine]	accelerate the rate of nail growth			
CSCC[C@H](N)C(=O)O [methionine]	accelerate the rate of nail growth			
